The values that follow are results of earlier work, collected in patent US10035822B2, “Cell-reactive, long-acting, or targeted compstatin analogs and related compositions and methods” (APELLIS PHARMACEUTICALS, INC., priority 2012, dated 2018).

Non-standard residues stand in square brackets, D forms with d. Trp(6-F) = N[C@@H](Cc1c[nH]c2cc(F)ccc12)C(=O)O; Bpa = N[C@@H](Cc1ccc(C(=O)c2ccccc2)cc1)C(=O)O; 1Nal = N[C@@H](Cc1cccc2ccccc12)C(=O)O; 2Nal = N[C@@H](Cc1ccc2ccccc2c1)C(=O)O

In this series the test system is complement activation. The note with it: relative to compstatin amidated at the C-terminus; published data (WO2004/026328, WO2007044668, Mallik 2005, Katragadda 2006); cited from earlier work.
As for “Ac-ICV(1-Nal)QDWGAHRCT-COOH (Ac-ICV[1Nal]QDWGAHRCT-OH; cysteine pairing not given here) [Ac V4(1-Nal)/H9A-OH]”, the Activity over compstatin is listed as 30× more. With “Ac-ICV(2-IgI)QDWGAHRCT-CONH2 (Ac-ICV[2‑Igl]QDWGAHRCT-NH2; cysteine pairing not given here) [Ac-V42IgI/H9A]”, the Activity over compstatin is recorded as 39× more. As to “Ac-ICV(2-IgI)QDWGAHRCT-COOH (Ac-ICV[2‑Igl]QDWGAHRCT-OH; cysteine pairing not given here) [Ac-V42IgI/H9A-OH]”, the Activity over compstatin is on record as 37× more.

With “Ac-ICV(2-Nal)QDWGAHRCT-CONH2 (Ac-ICV[2Nal]QDWGAHRCT-NH2; cysteine pairing not given here) [Ac-V4(2-Nal)/H9A]”, the Activity over compstatin is on record as 99× more. Consider “Ac-ICV(2-Nal)QDWGAHRCT-COOH (Ac-ICV[2Nal]QDWGAHRCT-OH; cysteine pairing not given here) [Ac V4(2-Nal)/H9A-OH]”, for which the Activity over compstatin is reported as 38× more.

With “Ac-ICV(5-methyl-W)QDWGAHRCT-CONH2 [Ac-V4(5-MeW)/H9A]”, the Activity over compstatin is recorded as 67× more. For “Ac-ICV(5fW)QDWGAHRCT-CONH2 [Ac-V4(5fW)/H9A]”, the Activity over compstatin was 31× more. Regarding “Ac-ICV(Bpa)QDWGAHRCT-CONH2 (Ac-ICV[Bpa]QDWGAHRCT-NH2; cysteine pairing not given here) [Ac-V4(Bpa)/H9A]”, the Activity over compstatin is on record as 86× more. Turning to “Ac-ICV(Bpa)QDWGAHRCT-COOH (Ac-ICV[Bpa]QDWGAHRCT-OH; cysteine pairing not given here) [Ac-V4(Bpa)/H9A-OH]”, the Activity over compstatin was 49× more. Take “Ac-ICVDhtQDWGAHRCT-COOH [Ac-V4Dht/H9A-OH]”: the Activity over compstatin is reported as 5× more. Turning to Ac-ICVVQDWGHHRCT-CONH2 [Ac-compstatin], the Activity over compstatin is 3× more. In the case of “Ac-ICVWQD(5fW)GAHRCT-CONH2 [Ac-V4W/W7(5fW)/H9A]”, the Activity over compstatin was 121× more.

Turning to Ac-ICVWQDWGAHRCT-CONH2 [Ac-V4W/H9A], the Activity over compstatin is reported as 45× more.

In the case of “Ac-ICVWQDWGAHRCdT-COOH [Ac-V4W/H9A/T13dT-OH]”, the Activity over compstatin was 55× more.

For Ac-ICVYQDWGAHRCT-CONH2 [Ac-V4Y/H9A], the Activity over compstatin is listed as 14× more. For the substance “H-GICV(6fW)QD(6fW)GAHRCTN-COOH (H-GICV[Trp(6-F)]QD[Trp(6-F)]GAHRCTN-OH; cysteine pairing not given here) [+G/V4(6fW)/W7(6fW)H9A + N-OH]”, the Activity over compstatin was 126× more.
